The source of these data is US8168592B2 (Amgen Inc., priority 2005, dated 2012).

Where two headings read alike, the source gives them in different places. Bridge positions count the residues as written; N and C are the ends. Square brackets hold non-standard residues; d marks the D form. Peptide text beside a SMILES is read from it. Oic = O=C(O)[C@@H]1C[C@@H]2CCCC[C@@H]2N1; hArg = N=C(N)NCCCC[C@H](N)C(=O)O; Cit = NC(=O)NCCC[C@H](N)C(=O)O A value given as a limit tells only on which side of the number the result lay.

The target in this experiment is T1, CGRP1 receptor (Homo sapiens, UniProt O60894+Q16602).
T1 construct: SK-N-MC cells express CRLR and RAMP1, which form CGRP1 receptor; endogenous in cells; host or cells: SK-N-MC human neuroblastoma cells
The experiment is described as follows: in vitro CGRP1 receptor mediated cAMP assay in SK-N-MC cells. Format: cell-based. As to the method: The in vitro cAMP assay employed a human neuroblastoma-derived cell line (SK-N-MC). SK-N-MC cells express CRLR and RAMP1, which form CGRP1 receptor. CGRP1 receptor is a G-protein coupled receptor linked to the stimulatory G-protein, Gs. […] Briefly, two days before the assay, the cells were plated in 96-well plates in growth medium. On the day of the assay cells were rinsed with PBS followed by the addition of 60 μl of plasma free medium for 15 minutes at room temperature. […] The medium was then removed and the cells were lysed with 100 μl lysis buffer for 30 minutes at 37° C. for 30 minutes. Using a Tropix ELISA kit (Applied Biosystems, Foster City, Calif.), a cAMP-AP conjugate was diluted (1:100) and added (30 μl) to each well of a 96-well ELISA plate. An aliquot of the lysis buffer from the cell plate was then added to the ELISA plate followed by an aliquot of the cAMP antibody. This mixture was incubated for 1 hour at room temperature with gentle shaking. The ELISA plate was then washed 6× with wash buffer followed by the additions of a substrate enhancer. This mixture was incubated for 30 minutes at room temperature and then read on a MicroBeta Jet or EnVision plate reader. The results were analyzed using Prism (GraphPad).
Background: Changes in cAMP serve as a functional read-out for many G protein-coupled receptors.

What is called IC50 is the point on the concentration scale where inhibition reaches its midpoint.

T1 sequence (Q16602 23-461): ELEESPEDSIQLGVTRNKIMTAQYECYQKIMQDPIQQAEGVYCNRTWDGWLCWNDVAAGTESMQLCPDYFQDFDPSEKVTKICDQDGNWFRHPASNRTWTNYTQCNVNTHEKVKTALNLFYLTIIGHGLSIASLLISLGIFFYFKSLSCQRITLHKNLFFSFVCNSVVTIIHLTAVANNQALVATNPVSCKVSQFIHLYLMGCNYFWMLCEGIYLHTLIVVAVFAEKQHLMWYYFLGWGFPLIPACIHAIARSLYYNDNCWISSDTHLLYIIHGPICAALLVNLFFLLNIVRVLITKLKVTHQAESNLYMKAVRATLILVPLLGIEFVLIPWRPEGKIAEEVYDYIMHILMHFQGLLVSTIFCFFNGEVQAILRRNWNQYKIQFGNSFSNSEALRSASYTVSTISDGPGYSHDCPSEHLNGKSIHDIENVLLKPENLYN
T1 sequence (O60894 27-148): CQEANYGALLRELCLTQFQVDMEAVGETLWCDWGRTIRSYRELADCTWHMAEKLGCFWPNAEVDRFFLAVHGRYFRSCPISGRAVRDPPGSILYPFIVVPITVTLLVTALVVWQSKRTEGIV

With `CC(=O)N[C@@H](CCCNC(N)=O)C(=O)N[C@@H](CC(C)C)C(=O)N[C@@H](C)C(=O)NCC(=O)N[C@@H](CC(C)C)C(=O)N[C@@H](CC(C)C)C(=O)N[C@@H](CO)C(=O)N[C@@H](CCCNC(N)=O)C(=O)N[C@@H](CO)C(=O)NCC(=O)NCC(=O)N[C@H](C(=O)N[C@H](C(=O)N[C@@H](CCCCNC(=N)N)C(=O)N[C@@H](CCCCN)C(=O)N[C@@H](CC(N)=O)C(=O)N[C@@H](Cc1ccccc1)C(=O)N[C@H](C(=O)N1CCC[C@H]1C(=O)N[C@H](C(=O)N[C@@H](CC(=O)O)C(=O)N[C@H](C(=O)NCC(=O)N1CCC[C@H]1C(=O)N[C@@H](Cc1ccccc1)C(=O)N[C@@H](C)C(=O)N[C@@H](Cc1ccccc1)C(N)=O)C(C)C)[C@@H](C)O)C(C)C)C(C)C)C(C)C` [compound 657] (Ac-[Cit]LAGLLS[Cit]SGGVV[hArg]KNFVPTDVGPFAF-NH2), the IC50 (Table 2A, read-out: IC50) was 13 nM. Take `CC(=O)N[C@@H](Cc1c[nH]c2ccccc12)C(=O)N[C@H](C(=O)N[C@H](C(=O)N[C@@H](Cc1c[nH]cn1)C(=O)N[C@@H](CCCNC(N)=O)C(=O)N[C@@H](CC(C)C)C(=O)N[C@@H](C)C(=O)NCC(=O)N[C@@H](CC(C)C)C(=O)N[C@@H](CC(C)C)C(=O)N[C@@H](CO)C(=O)N[C@@H](CCCNC(N)=O)C(=O)N[C@@H](CO)C(=O)NCC(=O)NCC(=O)N[C@H](C(=O)N[C@H](C(=O)N[C@@H](CCCCNC(=N)N)C(=O)N[C@@H](CCCCN)C(=O)N[C@@H](CC(N)=O)C(=O)N[C@@H](Cc1ccccc1)C(=O)N[C@H](C(=O)N1CCC[C@H]1C(=O)N[C@H](C(=O)N[C@@H](CC(=O)O)C(=O)N[C@H](C(=O)NCC(=O)N1[C@H](C(=O)N[C@@H](Cc2ccccc2)C(=O)N[C@@H](C)C(N)=O)C[C@@H]2CCCC[C@@H]21)C(C)C)[C@@H](C)O)C(C)C)C(C)C)C(C)C)[C@@H](C)O)C(C)C` [compound 659] (Ac-WVTH[Cit]LAGLLS[Cit]SGGVV[hArg]KNFVPTDVG[Oic]FA-NH2): the IC50 (Table 2A, read-out: IC50) was above 1000 nM. Same read-out and setting: the same measure for `CC(=O)N[C@H](C(=O)N[C@H](C(=O)N[C@@H](Cc1c[nH]cn1)C(=O)N[C@@H](CCCNC(N)=O)C(=O)N[C@@H](CC(C)C)C(=O)N[C@@H](C)C(=O)NCC(=O)N[C@@H](CC(C)C)C(=O)N[C@@H](CC(C)C)C(=O)N[C@@H](CO)C(=O)N[C@@H](CCCNC(N)=O)C(=O)N[C@@H](CO)C(=O)NCC(=O)NCC(=O)N[C@H](C(=O)N[C@H](C(=O)N[C@@H](CCCCNC(=N)N)C(=O)N[C@@H](CCCCN)C(=O)N[C@@H](CC(N)=O)C(=O)N[C@@H](Cc1ccccc1)C(=O)N[C@H](C(=O)N1CCC[C@H]1C(=O)N[C@H](C(=O)N[C@@H](CC(=O)O)C(=O)N[C@H](C(=O)NCC(=O)N1[C@H](C(=O)N[C@@H](Cc2ccccc2)C(=O)N[C@@H](C)C(=O)N[C@@H](Cc2ccccc2)C(N)=O)C[C@@H]2CCCC[C@@H]21)C(C)C)[C@@H](C)O)C(C)C)C(C)C)C(C)C)[C@@H](C)O)C(C)C` [compound 660] (Ac-VTH[Cit]LAGLLS[Cit]SGGVV[hArg]KNFVPTDVG[Oic]FAF-NH2): 3 nM. For the setting “IC50, Table 2A”, `CC(=O)N[C@@H](Cc1c[nH]c2ccccc12)C(=O)N[C@H](C(=O)N[C@H]1CCC(=O)NCCCC[C@@H](C(=O)NCC(=O)N[C@@H](CC(C)C)C(=O)N[C@@H](CC(C)C)C(=O)N[C@@H](CO)C(=O)N[C@@H](CCCNC(N)=O)C(=O)N[C@@H](CO)C(=O)NCC(=O)NCC(=O)N[C@H](C(=O)N[C@H](C(=O)N[C@@H](CCCCNC(=N)N)C(=O)N[C@@H](CCCCN)C(=O)N[C@@H](CC(N)=O)C(=O)N[C@@H](Cc2ccccc2)C(=O)N[C@H](C(=O)N2CCC[C@H]2C(=O)N[C@H](C(=O)N[C@@H](CC(=O)O)C(=O)N[C@H](C(=O)NCC(=O)N2CCC[C@H]2C(=O)N[C@@H](Cc2ccccc2)C(=O)N[C@@H](C)C(=O)N[C@@H](Cc2ccccc2)C(N)=O)C(C)C)[C@@H](C)O)C(C)C)C(C)C)C(C)C)NC(=O)[C@H](CC(C)C)NC(=O)[C@H](CCCNC(=N)N)NC(=O)[C@H](Cc2c[nH]cn2)NC1=O)C(C)C` [compound 663] (Ac-WVEHRLKGLLS[Cit]SGGVV[hArg]KNFVPTDVGPFAF-NH2; lactam 3-7) gave an IC50 of 1.22 to 2.06 nM. Turning to `CC(=O)N[C@@H](Cc1c[nH]c2ccccc12)C(=O)N[C@H](C(=O)N[C@H](C(=O)N[C@@H](Cc1c[nH]cn1)C(=O)N[C@@H](CCCNC(N)=O)C(=O)N[C@@H](CC(C)C)C(=O)N[C@@H](C)C(=O)NCC(=O)N[C@@H](CC(C)C)C(=O)N[C@@H](CC(C)C)C(=O)N[C@@H](CO)C(=O)N[C@@H](CCCNC(N)=O)C(=O)N[C@@H](CO)C(=O)NCC(=O)NCC(=O)N[C@H](C(=O)N[C@H](C(=O)N[C@@H](Cc1ccc(NC(=N)N)cc1)C(=O)N[C@@H](CCCCN)C(=O)N[C@@H](CC(N)=O)C(=O)N[C@@H](Cc1ccccc1)C(=O)N[C@H](C(=O)N1CCC[C@H]1C(=O)N[C@H](C(=O)N[C@@H](CC(=O)O)C(=O)N[C@H](C(=O)NCC(=O)N1[C@H](C(=O)N[C@@H](Cc2ccccc2)C(=O)N[C@@H](C)C(=O)N[C@@H](Cc2ccccc2)C(N)=O)C[C@@H]2CCCC[C@@H]21)C(C)C)[C@@H](C)O)C(C)C)C(C)C)C(C)C)[C@@H](C)O)C(C)C` [compound 664], the IC50 (Table 2A, read-out: IC50) fell in the range of 2.29 to 2.95 nM. In the case of `CC(=O)N[C@@H](Cc1c[nH]c2ccccc12)C(=O)N[C@H](C(=O)N[C@H](C(=O)N[C@@H](Cc1c[nH]cn1)C(=O)N[C@@H](CCCNC(N)=O)C(=O)N[C@@H](CC(C)C)C(=O)N[C@@H](C)C(=O)NCC(=O)N[C@@H](CC(C)C)C(=O)N[C@@H](CC(C)C)C(=O)N[C@@H](CO)C(=O)N[C@@H](CCCNC(N)=O)C(=O)N[C@@H](CO)C(=O)NCC(=O)NCC(=O)N[C@H](C(=O)N[C@H](C(=O)N[C@@H](CCCCNC(=N)N)C(=O)N[C@@H](CCCCN)C(=O)N[C@@H](CC(N)=O)C(=O)N[C@@H](Cc1ccccc1)C(=O)N[C@H](C(=O)N1CCC[C@H]1C(=O)N[C@H](C(=O)N[C@@H](CC(=O)O)C(=O)N[C@H](C(=O)NCC(=O)NC1(C(=O)N[C@@H](Cc2ccccc2)C(=O)N[C@@H](C)C(=O)N[C@@H](Cc2ccccc2)C(N)=O)Cc2ccccc2C1)C(C)C)[C@@H](C)O)C(C)C)C(C)C)C(C)C)[C@@H](C)O)C(C)C` [compound 669], the IC50 (Table 2A, read-out: IC50) was 33.2 to 262 nM. The same measure, in the same setting: the same measure for `CC(=O)N[C@@H](Cc1c[nH]c2ccccc12)C(=O)N[C@H](C(=O)N[C@H](C(=O)N[C@@H](Cc1cnc[nH]1)C(=O)N[C@@H](CCCNC(N)=O)C(=O)N[C@@H](CC(C)C)C(=O)N[C@@H](C)C(=O)NCC(=O)N[C@@H](CC(C)C)C(=O)N[C@@H](CC(C)C)C(=O)N[C@@H](CO)C(=O)N[C@@H](CCCNC(N)=O)C(=O)N[C@@H](CO)C(=O)NCC(=O)NCC(=O)N[C@H](C(=O)N[C@H](C(=O)N[C@@H](CCCCN=C(N)N)C(=O)N[C@@H](CCCCN)C(=O)N[C@@H](CC(N)=O)C(=O)N[C@@H](Cc1ccccc1)C(=O)N[C@H](C(=O)N1CCC[C@H]1C(=O)N[C@H](C(=O)N[C@@H](CC(=O)O)C(=O)N[C@H](C(=O)NCC(=O)N1CSC[C@H]1C(=O)N[C@@H](Cc1ccccc1)C(=O)N[C@@H](C)C(=O)N[C@@H](Cc1ccccc1)C(N)=O)C(C)C)[C@@H](C)O)C(C)C)C(C)C)C(C)C)[C@@H](C)O)C(C)C` [compound 671]: 2.15 nM; for `CC(=O)N[C@@H](Cc1c[nH]c2ccccc12)C(=O)N[C@H](C(=O)N[C@H](C(=O)N[C@@H](Cc1cnc[nH]1)C(=O)N[C@@H](CCCNC(N)=O)C(=O)N[C@@H](CC(C)C)C(=O)N[C@@H](C)C(=O)NCC(=O)N[C@@H](CC(C)C)C(=O)N[C@@H](CC(C)C)C(=O)N[C@@H](CO)C(=O)N[C@@H](CCCNC(N)=O)C(=O)N[C@@H](CO)C(=O)NCC(=O)NCC(=O)N[C@H](C(=O)N[C@H](C(=O)N[C@@H](CCCCNC(=N)N)C(=O)N[C@@H](CCCCN)C(=O)N[C@@H](CC(N)=O)C(=O)N[C@@H](Cc1ccccc1)C(=O)N[C@H](C(=O)N1CCC[C@H]1C(=O)N[C@H](C(=O)N[C@@H](CC(=O)O)C(=O)N[C@H](C(=O)NCC(=O)N(C)CC(=O)N[C@@H](Cc1ccccc1)C(=O)N[C@@H](C)C(=O)N[C@@H](Cc1ccccc1)C(N)=O)C(C)C)[C@@H](C)O)C(C)C)C(C)C)C(C)C)[C@@H](C)O)C(C)C` [compound 672]: 3.19 to 4.42 nM. As to `CC(=O)N[C@@H](Cc1c[nH]c2ccccc12)C(=O)N[C@H](C(=O)N[C@H](C(=O)N[C@@H](Cc1c[nH]cn1)C(=O)N[C@@H](CCCNC(=N)N)C(=O)N[C@@H](CC(C)C)C(=O)N[C@@H](C)C(=O)NCC(=O)N[C@@H](CC(C)C)C(=O)N[C@@H](CC(C)C)C(=O)N[C@@H](CO)C(=O)N[C@H](CCCNC(=N)N)C(=O)N[C@@H](CO)C(=O)NCC(=O)NCC(=O)N[C@H](C(=O)N[C@H](C(=O)N[C@@H](CCCNC(=N)N)C(=O)N[C@@H](CS)C(=O)N[C@@H](CC(N)=O)C(=O)N[C@@H](Cc1ccccc1)C(=O)N[C@H](C(=O)N1CCC[C@H]1C(=O)N[C@H](C(=O)N[C@@H](CC(=O)O)C(=O)N[C@H](C(=O)NCC(=O)N1CCC[C@H]1C(=O)N[C@@H](Cc1ccccc1)C(=O)N[C@@H](C)C(=O)N[C@@H](Cc1ccccc1)C(N)=O)C(C)C)[C@@H](C)O)C(C)C)C(C)C)C(C)C)[C@@H](C)O)C(C)C` [compound 776] (Ac-WVTHRLAGLLS[dR]SGGVVRCNFVPTDVGPFAF-NH2), the IC50 (Table 2D, read-out: IC50) turned out to be 0.59 nM.
